According to paper PMC5428058, “Local delivery of novel MRTF/SRF inhibitors prevents scar tissue formation in a preclinical model of fibrosis” (Scientific Reports, 2017):

Legend:
[1] = tested on: New Zealand white rabbits; experiment: rabbit glaucoma filtration surgery model of scar tissue formation, clinical end-points; type: in vivo; settings: for increase in IOP survival: 100 μM subconjunctival, IOP remains below baseline; for increase in long-term success of surgery (bleb survival) compared to vehicle control: 100 μl of 100 μM subconjunctival, day 30; for mean day of bleb failure: CCG compounds 100 μM subconjunctival, MMC 0.2 mg/ml intraoperative, vehicle 14 days; for intraocular pressure (IOP): versus vehicle control or baseline
From the text: 24 female New Zealand white rabbits (2–2.4 kg, 12—14 weeks, Highgate, UK) underwent experimental glaucoma filtration surgery to the left eye under general anaesthesia, [28]. A superonasal fornix-based conjunctival flap was raised behind the limbus and a micro-vitreoretinal blade (20 gauge, 0.90 mm, Surgistar USA) was used to make a partial thickness scleral tunnel to the corneal stroma. A 22 gauge, 25 mm intravenous cannula was passed through the tunnel and the needle was removed once it was visible in the cornea. The cannula was advanced into the mid-pupillary area, trimmed at its scleral edge and fixed to the scleral surface using a 10–0 nylon suture (Alcon, USA). The conjunctival incision was closed using two interrupted 10–0 nylon sutures. In a randomised, prospective, single-masked observer study, the rabbits received either intraoperative 0.2 mg/ml mitomycin-C (MMC) [N = 6], or postoperative subconjunctival injections (100 μl) of 100 μM CCG-203971 [N = 6] or 100 μM CCG-222740 [N = 6] or vehicle control [N = 6] daily for the first nine days followed by twice weekly for three weeks, [33]. CCG-222740 and CCG-203971 were dissolved in 100% DMSO (Sigma, UK) at 10 mM and then diluted to 100 μM with sterile PBS. The same volume of DMSO was diluted with PBS for the vehicle control. For the MMC-treated group, a small corneal light shield sponge was soaked in 1 ml of 0.2 mg/ml MMC and applied over the conjunctiva for 3 minutes, and the area was then thoroughly washed with 50 ml of physiologic balanced salt solution (Alcon Laboratories, Inc., Fort Worth, TX). All the postoperative subconjunctival injections were given at the same site by a single-masked researcher.
(§1) The animals were evaluated twice weekly by a single-masked researcher. Bleb width and length were measured using calipers and intraocular pressures (IOP) were measured using a tonovet (Icare). The primary efficacy end-point was bleb survival as this is indicative of the long-term opening of the filtration pathway created during surgery. Bleb failure was defined as the appearance of a flat, scarred, and vascularised bleb associated with a deep anterior chamber. IOP survival, defined as when the intraocular pressure remains below the baseline IOP measurement, and bleb area were used as secondary end-points. Conjunctival vascularity was graded on a scale of 0 to 3 (0: avascular, 1: normal, 2: hyperaemic, 3: very hyperaemic).

[2] = drug levels in aqueous, vitreous and serum by LC/MS; type: in vivo; settings: rabbit, day 30, 48 hours after the last subconjunctival dose
Procedure: (§2) All animals were carefully evaluated for any signs of ocular or systemic toxicity during the study. At day 30, 100 µl of aqueous, 1 ml of vitreous, and 1 ml of venous blood were sampled on the rabbit eyes receiving CCG-222740 or CCG-203971 or vehicle control. The venous blood samples were left to clot for 30 minutes at room temperature, spun at 4000 rpm for 15 minutes at 4 °C, and the serum was collected as the supernatant. Samples were extracted in acetonitrile and the levels of CCG-222740 and CCG-203971 were measured in the aqueous, vitreous, and serum using liquid chromatography/mass spectrometry (LC/MS) in the Metabolomics Core at Michigan State University (East Lansing, MI).

SRF reporter gene = SRF reporter gene assay in transfected cells; type: cell-based; settings: human and rabbit conjunctival fibroblasts (3DA.Luc), HEK293 (SRE.L luc), 24 hours
Procedure: Human or rabbit conjunctival fibroblasts were plated at 2 × 10^4 cells/well in 24-well plates (Falcon, Fisher Scientific) for transient transfection. Conjunctival fibroblasts in each well were co-transfected using 2.5 μl Lipofectamine LTX and 0.5 μl Plus reagent (Invitrogen) with 8 ng of SRF reporter plasmid 3DA.Luc, 20 ng of pTK-Renilla-Luc and 172 ng of pEF in OptiMEM (Gibco)[58]. After 2 hours of transfection, fibroblasts were allowed to recover in DMEM +10% FCS overnight.
HEK293T cells were plated at 2 × 10^4 cells/well in 96-well plates (Falcon, Fisher Scientific) and co-transfected using Lipofectamine 2000 (Invitrogen) with 4 ng of SRF reporter plasmid SRE.L. luciferase, and 2 ng of either Gα12Q231L or pcDNA3.1/Zeo(−) diluted in Opti-MEM (Gibco). After 5 hours of transfection, cells were allowed to recover in DMEM +10% FCS overnight.
The next day, the cells were serum starved in DMEM +0.3% FCS and 5, 25, 50, or 100 μM of CCG-222740 or CCG-203971 or 0.1% DMSO control for 24 hours. The cells were then lysed and luciferase levels were measured using a Luciferase Assay System (Promega), according to the manufacturer’s instructions. Each experiment was carried out in triplicates for each condition and the experiment was repeated three times.

[3] = tested on: New Zealand white rabbits; experiment: local and systemic toxicity after glaucoma filtration surgery; type: in vivo; settings: rabbit; for Ki67 positive cells in the conjunctival epithelium: day 30; for corneal or conjunctival toxicities, anterior chamber inflammation / local toxicity, conjunctival epithelium: local delivery; for systemic toxicity: local delivery to the conjunctiva
Procedure: as §1
For the Ki67 staining, the sections were dewaxed, rehydrated, and microwaved for 15 minutes in sodium citrate buffer (pH 6) for antigen retrieval. After incubating in 1.6% hydrogen peroxide followed by 10% normal horse serum, the sections were incubated in mouse anti-Ki67 (M7248, Dako) diluted 1 in 25 in 1% BSA/PBS for 1 hour at room temperature. The sections were then incubated in biotinylated horse anti-mouse IgG (Vector) and Avidin-Biotin complex (Vector), developed in DAB (Vector), and counterstained in haematoxylin.
as §2

[4] = tested on: αSMA-positive human conjunctival fibroblasts; experiment: alpha smooth muscle actin staining; type: cell-based; settings: 48 hours, control 24.5%
Procedure: Human conjunctival fibroblasts were plated on 20 mm glass coverslips at 1 × 10^5 cells/well in 6-well plates (Falcon, Fisher Scientific). The next day, the fibroblasts were treated for 48 hours with 10 or 25 μM of CCG-222740 or CCG-203971 or 0.1% DMSO control in DMEM +10% FCS. The samples were fixed in 4% paraformaldehyde for 10 minutes, washed three times in PBS, and permeabilised in PBS 0.2% TX-100 (Triton X-100, Sigma) for 20 minutes. The samples were blocked with 5% fetal calf serum/5% bovine serum albumin (Sigma) for 1 hour. The samples were incubated overnight with the Cy3-labelled alpha smooth muscle actin antibody (1:1000, Sigma) in a wet chamber at 4 °C in the dark. The next day, the samples were washed twice in PBS 0.1% TX-100 and incubated with phalloidin (1:200) and DAPI (1:2000) for 1 hour at room temperature. The samples were then mounted on slides and imaged using an Upright780 Zeiss LSM confocal microscope. The proportion of fibroblasts with prominent αSMA-positive stress fibres was quantified visually from three random fields of view per treatment group in 3 independent experiments.

Row | Structure (SMILES) | bleb area compared to vehicle control [1] | increase in IOP survival [1] [%] | increase in long-term success of surgery (bleb survival) compared to vehicle control [1] [%] | mean day of bleb failure [1] [days] | intraocular pressure (IOP) [1] | drug level in aqueous [2] | drug level in serum [2] | drug level in vitreous [2] | inhibition of baseline SRF reporter activity (SRF reporter gene) [%] | conjunctival vascularity [3] | Ki67 positive cells in the conjunctival epithelium [3] | corneal or conjunctival toxicities, anterior chamber inflammation [3] | local toxicity, conjunctival epithelium [3] | systemic toxicity [3] | percentage of αSMA-positive fibroblasts ([4]; 10 μM) [%] | percentage of αSMA-positive fibroblasts ([4]; 25 μM) [%]
1 | O=C(Nc1ccc(Cl)cc1)C1CCCN(C(=O)c2cccc(-c3ccco3)c2)C1 (centres unmarked) [CCG-203971] | no statistically significant differences | 33 | 33 | 22.5 | remained consistently lower than baseline measurements | below 20 nM | below 20 nM | below 20 nM | ~100 | no abnormalities in conjunctival vascularity | normal Ki67 positive cells | no signs of corneal or conjunctival toxicities or anterior chamber inflammation | did not cause any detectable local toxicity | none of them showed any signs of systemic toxicity | 17.0 | 8.6
2 | O=C(Nc1ccc(Cl)cc1)C1CN(C(=O)c2cccc(-c3ccco3)c2)CC(F)(F)C1 (centres unmarked) [CCG-222740] | significantly larger bleb area | 67 | 67 | 28.5 | remained consistently lower than baseline measurements | below 20 nM | below 20 nM | below 20 nM | ~100 | no abnormalities in conjunctival vascularity | normal Ki67 positive cells | no signs of corneal or conjunctival toxicities or anterior chamber inflammation | did not cause any detectable local toxicity | none of them showed any signs of systemic toxicity | 9.0 | 2.2
